According to patent US20210380586A1, “2-INDOLYL IMIDAZO[4,5-D]PHENANTHROLINE POLYMORPHS AND COMPOSITIONS REGARDING THE SAME” (Aptose Biosciences Inc., priority 2020, published 2021):

How the values were obtained:
[1] = Formulation development: solubility and clinical infusion simulation through 5 μm in-line filter; format: physicochemical
Description: Various pharmaceutical compositions were prepared in order to develop a formulation suitable for IV administration. […] A desirable IV pharmaceutical composition will be a solution. Further, a desirable IV pharmaceutical composition, when diluted with IV fluids will remain in solution. In addition, a desirable IV pharmaceutical composition, when diluted with IV fluids will remain in solution and pass an in-line filter of about 5 μm.
Clinical infusion simulation study: formulated Compound I (equivalent to 4 mg/mL Compound I free base tetrahydrate) was mixed in-line with Lactated Ringers IV Solution through a controlled delivery system employing infusion pumps. The blended liquid was passed through a 5 μm in-line filter and the eluate was then passed to the end of the infusion line. Sample analysis was performed by collecting materials at 0, 15, 30, 60, 75, 90, 105, 115 and 120 minutes and analyzing immediately be visual assessment under a microscope.

[2] = test system: AML cell lines; assay: Induction of cell cycle arrest and apoptosis; format: cell-based
Text: (§1) Compound I free base and Compound I HCl salt were both tested for their in vitro antiproliferative potency against acute myeloid leukemia (AML) cell lines, for their concentration-dependent abilities to induce in vitro changes in gene expression (KLF4, c-Myc, CDX2, p21, and GAPDH genes) and to induce cell cycle arrest and apoptosis in AML cell lines.

[3] = test system: KLF4, c-Myc, CDX2, p21, and GAPDH genes; assay: In vitro changes in gene expression; format: cell-based; conditions: AML cell lines
Text: as §1

[4] = test system: c-Myc oncogene; assay: Inhibition of c-Myc expression in cancer cells; format: cell-based; conditions: human-derived solid tumor and hematologic cancer cells
Text: (§2) Compound I is a small molecule that inhibits expression of the c-Myc oncogene, leading to cell cycle arrest and programmed cell death (apoptosis) in human-derived solid tumor and hematologic cancer cells.

[5] = test system: xenograft models of solid tumors and hematologic cancers; assay: Nonclinical pharmacology xenograft studies; format: in vivo
Text: as §2

[6] = test system: acute myeloid leukemia (AML) cell lines; assay: In vitro antiproliferative assay; format: cell-based
Text: as §1

Cc1[nH]c2ccc(F)cc2c1-c1nc2c3cccnc3c3ncccc3c2[nH]1 [Compound I, 2-(5-fluoro-2-methyl-1H-indol-3-yl)-1H-imidazo[4,5-f][1,10]phenanthroline]
solubility compared with Compound I-HCl under the same conditions ([1]; Solutol HS 15, PG, PEG-400, water): more soluble
apparent solubility while adding water to the formulation ([1]; in the beginning, approximately 3-10 mL water added): more soluble
behaviour upon addition of IV fluid ([1]; pharmaceutical composition prepared with Fischer Scientific's PG): crashed out of solution
effect of PEG-400 on solubility ([1]; tested conditions (entries 2 and 3)): did not improve solubility
apparent solubility while adding water to the formulation ([1]; upon complete addition of water (up to 60 mL), cloudy formulation): insoluble
induction of cell cycle arrest and apoptosis, free base versus HCl salt [2]: behaved equivalently
concentration-dependent in vitro changes in gene expression, free base versus HCl salt [3]: behaved equivalently
expression of the c-Myc oncogene [4]: inhibits
in vivo anti-tumor activity [5]: demonstrated in vivo anti-tumor activity
in vitro antiproliferative potency, free base versus HCl salt [6]: behaved equivalently
